Test results from patent US20100323442A1, “MODULATION OF THE PHOSPHATIDYLINOSITOL-3-KINASE PATHWAY IN THE DIFFERENTIATION OF HUMAN EMBRYONIC STEM CELLS” (priority 2006, published 2010).
Entries after “also recorded” stand apart in the source; their conditions may differ.

Tests used:
Human ESCs (CyT203) [1] = assay: Differentiation of hESCs in growth factor conditions, marker gene expression by QPCR; format: cell-based; conditions: for expression of brachyury: RPMI, 0% FBS day 1, 0.2% day 2, 2% days 3-5, activin A 100 ng/ml at 36 and 48 hours; for differentiation of hESCs to initial cell fate, as indicated by marker expression: cultures lacking insulin, follistatin 100 ng/ml, noggin 200 ng/ml, BMP4 100 ng/ml, 5 days
Description: Human ESCs (CyT203) were grown in growth media on a mouse fibroblast feeder layer. On the day differentiation began, cultures were washed once with phosphate buffered saline (PBS) and then placed into differentiation media. Differentiation media consisted of RPMI with penicillin/streptomycin and Glutamax containing 0% FBS on the first day, 0.2% v/v FBS on the second day and 2% v/v FBS on days 3-5. Growth factors were used at the following concentrations: activin A at 100 ng/ml, follistatin at 100 ng/ml, noggin at 200 ng/ml, BMP4 at 100 ng/ml, and SU5402 at 5 μM. Individual cultures received the same growth factor cocktail with or without the addition of 10 μg/ml human recombinant insulin for all 5 days of differentiation as indicated. Samples were taken at daily intervals for analysis of gene expression using QPCR to monitor the differentiation of the populations in response to the different growth factor treatments. At the conclusion of the treatment phase the cells were fixed in 4% paraformaldehyde for 15 min at room temperature and reacted with antibodies to SOX17 or PAX6. Human embryonic stem cells (CyT203) were grown in growth media on a mouse fibroblast feeder layer. On the day differentiation began, cultures were washed once with phosphate buffered saline (PBS) and then placed into differentiation media. Differentiation media consisted of RPMI with penicillin/streptomycin and Glutamax containing 0% FBS on the first day, 0.2% v/v FBS on the second day and 2% v/v FBS on days 3-5. Cultures were treated with SU5402 at 5 μM with or without the addition of human recombinant insulin at 10 μg/ml. Individual cultures received the same growth factor cocktail for all 5 days of differentiation as indicated. Samples were taken at daily intervals for analysis of gene expression using QPCR to monitor the differentiation of the populations in response to the different growth factor treatments. At the conclusion of the treatment phase the cells were fixed in 4% paraformaldehyde for 15 min at room temperature and reacted with antibodies to SOX17, OCT4 or PAX6.

Human ESCs (CyT203) [2] = assay: Immunofluorescence of treated hESCs with antibodies to SOX17, OCT4 or PAX6; format: cell-based
Description: Human ESCs (CyT203) were grown in growth media on a mouse fibroblast feeder layer. On the day differentiation began, cultures were washed once with phosphate buffered saline (PBS) and then placed into differentiation media. Differentiation media consisted of RPMI with penicillin/streptomycin and Glutamax containing 0% FBS on the first day, 0.2% v/v FBS on the second day and 2% v/v FBS on days 3-5. Growth factors were used at the following concentrations: activin A at 100 ng/ml, follistatin at 100 ng/ml, noggin at 200 ng/ml, BMP4 at 100 ng/ml, and SU5402 at 5 μM. Individual cultures received the same growth factor cocktail with or without the addition of 10 μg/ml human recombinant insulin for all 5 days of differentiation as indicated. Samples were taken at daily intervals for analysis of gene expression using QPCR to monitor the differentiation of the populations in response to the different growth factor treatments. At the conclusion of the treatment phase the cells were fixed in 4% paraformaldehyde for 15 min at room temperature and reacted with antibodies to SOX17 or PAX6.
Human embryonic stem cells (CyT203) were grown in growth media on a mouse fibroblast feeder layer. On the day differentiation began, cultures were washed once with phosphate buffered saline (PBS) and then placed into differentiation media. Differentiation media consisted of RPMI with penicillin/streptomycin and Glutamax containing 0% FBS on the first day, 0.2% v/v FBS on the second day and 2% v/v FBS on days 3-5. Cultures were treated with SU5402 at 5 μM with or without the addition of human recombinant insulin at 10 μg/ml. Individual cultures received the same growth factor cocktail for all 5 days of differentiation as indicated. Samples were taken at daily intervals for analysis of gene expression using QPCR to monitor the differentiation of the populations in response to the different growth factor treatments. At the conclusion of the treatment phase the cells were fixed in 4% paraformaldehyde for 15 min at room temperature and reacted with antibodies to SOX17, OCT4 or PAX6.

[3] = QPCR, activin A 100 ng/ml, SU5402 5 μM
[4] = QPCR, insulin 10 μg/ml added to growth factor treatment
[5] = QPCR, no insulin, continued presence of activin A 100 ng/ml

Cc1c[nH]c(/C=C2\C(=O)Nc3ccccc32)c1CCC(=O)O [SU5402, reference compound]
expression of brachyury (Human ESCs (CyT203) [1]; QPCR, no insulin, SU5402 5 μM): elevated expression | differentiation of hESCs to initial cell fate, as indicated by marker expression (Human ESCs (CyT203) [1]; [3]): make all available fate choices; also recorded: made all available fate choices | expression of CDX2 (Human ESCs (CyT203) [1]; QPCR, no insulin, SU5402 5 μM): elevated expression | expression of SOX1 (Human ESCs (CyT203) [1]; QPCR, no insulin, SU5402 5 μM): elevated expression | expression of SOX7 (Human ESCs (CyT203) [1]; QPCR, no insulin, SU5402 5 μM): elevated expression

insulin: human recombinant insulin, 10 μg/ml, signals through the PI-3-kinase pathway
production of cells of each of the primary lineages (Human ESCs (CyT203) [1]; 10 μg/ml human recombinant insulin added to the growth factor cocktail, all 5 days): significantly reduced | expression of CDX2 in the presence of insulin (Human ESCs (CyT203) [1]; [4]): decreased expression | expression of PAX6 in the presence of insulin (Human ESCs (CyT203) [1]; [4]): decreased expression | expression of SOX1 in the presence of insulin (Human ESCs (CyT203) [1]; [4]): decreased expression | expression of SOX7 in the presence of insulin (Human ESCs (CyT203) [1]; [4]): decreased expression | expression of WNT3A in the presence of insulin (Human ESCs (CyT203) [1]; [4]): decreased expression | expression of brachyury in the presence of insulin (Human ESCs (CyT203) [1]; [4]): decreased expression | generalized differentiation under SU5402 (Human ESCs (CyT203) [1]; SU5402 5 μM plus insulin 10 μg/ml, brachyury, SOX1, SOX7, CDX2): inhibited strongly | efficiency with which the hESCs differentiate to each of the 4 primary lineages (Human ESCs (CyT203) [1]; high levels of insulin (10 μg/ml) in the media): decrease | OCT4-positive cell numbers (Human ESCs (CyT203) [2]; high levels of insulin present): maintenance | number of SOX17-positive cells in response to activin A treatment (Human ESCs (CyT203) [2]; high levels of insulin present): decrease | number of PAX6-positive cells in response to noggin/follistatin treatment (Human ESCs (CyT203) [2]; insulin in the media): reduced

B1: activin A: growth factor used at 100 ng/ml as differentiation factor (protein, UniProt P08476 311-426, looked up)
Inhibin beta A chain: GLECDGKVNICCKKQFFVSFKDIGWNDWIIAPSGYHANYCEGECPSHIAGTSGSSLSFHSTVINHYRMRGHSPFANLKSCCVPTKLRPMSMLYYDDGQNIIKKDIQNMIVEECGCS
modifications: Inhibin beta A chain
notes: growth factor used at 100 ng/ml as differentiation factor
expression of brachyury (Human ESCs (CyT203) [1]; QPCR, no insulin, SU5402 5 μM): elevated expression | differentiation of hESCs to initial cell fate, as indicated by marker expression (Human ESCs (CyT203) [1]; [3]): induced initial fate commitment to mesendoderm | PAX6 mRNA (Human ESCs (CyT203) [1]; QPCR, no insulin, activin A 100 ng/ml): induction | expression of WNT3A (Human ESCs (CyT203) [1]; QPCR, no insulin, activin A 100 ng/ml, at 36 and 48 hours): elevated expression | expression of GSC (Human ESCs (CyT203) [1]; [5]): elevated expression | expression of SOX17 (Human ESCs (CyT203) [1]; [5]): elevated expression | further differentiation of the mesendoderm (Human ESCs (CyT203) [1]; continued presence of activin A 100 ng/ml, indicated by SOX17 and GSC): further differentiated to definitive endoderm
